Holding throughout (type): cell-based, human
For one experiment, the system named is FaDu cells. Put plainly: Inhibition test for sphere-forming ability of cancer cells (Test Example 1), FaDu. To be noted: concentration for 50% inhibition of cell proliferation, read-out: IC50 (μmol/L) FaDu (Sphere IC50 value). The source says: (§1) The reliable methods established for measuring the self-renewal ability of cells which is one of the CSC's properties include a method for measuring the sphere-forming ability of cancer cells in non-adherent condition in the absence of serum (Cancer Res 65, 5506-5511 (2005)). Human colorectal cancer-derived HCT-116 cells, human colon-adenocarcinoma-derived HT-29 cells, and human pharyngeal cancer-derived FaDu cells were available from American Type Culture Collection (ATCC). HCT-116 cells and HT-29 cells were cultured at 37° C. under 5% CO2 using the McCoy's 5a medium containing 10% fetal bovine serum (FBS) and 1% penicillin/streptomycin, and FaDu cells were cultured at 37° C. under 5% CO2 using the MEM medium containing 10% FBS, 1% non-essential amino acid, 1% sodium pyruvate, and 1% penicillin/streptomycin. HCT-116 cells, HT-29 cells, and FaDu cells were seeded in a 384 Well Black Clear Bottom Ultra-Low Attachment Microplate (Corning Cat. No. 3827) in an amount of 350-800 cells/well using the DMEM/F12 medium containing 2% B27 supplement (GIBCO), 20 ng/mL epidermal growth factor (EGF) (peprotech), 10 ng/mL basic fibroblast growth factor (bFGF) (peprotech), 5 μg/mL insulin (Sigma), and 1% penicillin/streptomycin. Each test compound was added into each well to adjust the final concentration of DMSO to 0.1%, and the cells were cultured for 4 days. The number of viable cells in each well was then measured with CellTiter-Glo® Luminescent Cell Viability Assay (Promega) to calculate the concentration of each test compound for 50% inhibition of cell proliferation (Sphere IC50 value; μmol/L).
(§2) The experiment of Test Example 1 was performed for each compound of each Example. The concentration of each test compound for 50% inhibition of cell proliferation (Sphere IC50 value; μmol/L) is shown in the following Table.

In a further experiment the test system is HT-29 cells. Put plainly: Inhibition test for sphere-forming ability of cancer cells (Test Example 1), HT-29. To be noted: concentration for 50% inhibition of cell proliferation, read-out: IC50 (μmol/L) HT-29 (Sphere IC50 value).
Text: as §1, §2

The next experiment deals with HCT-116 cells. Put plainly: Inhibition test for sphere-forming ability of cancer cells (Test Example 1), HCT-116. To be noted: for pIC50: HCT-116 cells, concentration for 50% inhibition of cell proliferation, read-out: IC50 (μmol/L) HCT-116 (Sphere IC50 value); for inhibitory effect on the sphere-forming ability of cancer cells: Test Example 1, summary in words, cell line not given (HCT-116, HT-29, FaDu tested).
Text: as §1, §2

Each structure is given as a SMILES string. pIC50: −log10 of the molar value. Like-named read-outs stand apart in the source and are kept apart here. Where only a bound is given, the exact number is not on record here.

Experimental findings from patent US10898469B2, “Imidazolylamide derivative” (Sumitomo Dainippon Pharma Co., Ltd., priority 2016, dated 2021) are described below.

As to `O=C(/C=C/c1ccc(C(F)(F)F)nc1)Nc1cn(Cc2cccc(Cl)c2)cn1` [Example 44], the figures for the pIC50 in the experiment on FaDu cells (Homo sapiens), with HT-29 cells (Homo sapiens) and with HCT-116 cells (Homo sapiens) were 7.15, 7.30 and 7.00, respectively.

Consider `O=C(/C=C/c1cncc(Br)c1)Nc1cn(Cc2cccc(Cl)c2)cn1` [Example 45], for which the figures for the pIC50 in the experiment on FaDu cells (Homo sapiens), with HT-29 cells (Homo sapiens) and in the experiment with HCT-116 cells (Homo sapiens) were 6.09, 6.06 and 5.20, respectively.

As for `O=C(/C=C/c1ccc2[nH]ccc2c1)Nc1cn(Cc2cccc(Cl)c2)cn1` [Example 47, (E)-N-(1-(3-Chlorobenzyl)-1H-imidazol-4-yl)-3-(1H-indol-5-yl)acrylamide], the pIC50 in the experiment with FaDu cells (Homo sapiens) was 6.12; with HT-29 cells (Homo sapiens) it was 6.15; in the experiment with HCT-116 cells (Homo sapiens) it was 6.05.

Take `O=C(/C=C/c1ccc(C(F)(F)F)cc1)Nc1cn(Cc2cccc(Cl)c2)cn1` [Example 48, (E)-N-(1-(3-Chlorobenzyl)-1H-imidazol-4-yl)-3-(4-(trifluoromethyl)phenyl)acrylamide]: the results for the pIC50 in the experiment with FaDu cells (Homo sapiens), in the experiment on HT-29 cells (Homo sapiens) and in the experiment on HCT-116 cells (Homo sapiens) were 7.05, 7.10 and 6.12, respectively.

For `Cc1ccc(/C=C/C(=O)Nc2cn(Cc3cccc(Cl)c3)cn2)cc1` [Example 49], the values for the pIC50 in the experiment with FaDu cells, in the experiment on HT-29 cells and in the experiment with HCT-116 cells were 7.10, 7.22 and 7.00, respectively. In the experiment with HCT-116 cells, the “inhibitory effect on the sphere-forming ability of cancer cells” value (“inhibitory effect” below) is on record as “particularly potent inhibitory effect”.

Turning to `O=C(/C=C/c1ccccc1F)Nc1cn(Cc2cccc(Cl)c2)cn1` [Example 50], the pIC50 in the experiment with FaDu cells was 5.17; in the experiment with HT-29 cells, 6.05; in the experiment with HCT-116 cells, 5.61.

For the molecule `O=C(/C=C/c1ccccc1Cl)Nc1cn(Cc2cccc(Cl)c2)cn1` [Example 51], the figures for the pIC50 in the experiment on FaDu cells, in the experiment with HT-29 cells and with HCT-116 cells were 5.21, 5.43 and 5.14, respectively.

In the case of `COc1ccc(OC)c(/C=C/C(=O)Nc2cn(Cc3cccc(Cl)c3)cn2)c1` [Example 53], the results for the pIC50 in the experiment with FaDu cells, with HT-29 cells and in the experiment with HCT-116 cells were 6.06, 6.08 and 6.06, respectively.

Consider `O=C(/C=C/c1ccccc1O)Nc1cn(Cc2cccc(Cl)c2)cn1` [Example 54], for which the pIC50 with FaDu cells was 6.09; in the experiment with HT-29 cells, 5.09; in the experiment with HCT-116 cells it was 5.08.

Take `O=C(/C=C/c1ccccc1C(F)(F)F)Nc1cn(Cc2cccc(Cl)c2)cn1` [Example 55]: the results for the pIC50 with FaDu cells, with HT-29 cells and with HCT-116 cells were 5.42, 5.92 and 6.02, respectively.

Regarding `O=C(/C=C/c1cccc(Br)c1)Nc1cn(Cc2cccc(Cl)c2)cn1` [Example 56], the pIC50 in the experiment on FaDu cells was 5.35; with HT-29 cells, 5.18; in the experiment with HCT-116 cells it was 5.24.

With `O=C(/C=C/c1cccc(F)c1)Nc1cn(Cc2cccc(Cl)c2)cn1` [Example 57], the pIC50 was 5.36 with FaDu cells, 5.48 with HT-29 cells and 6.03 with HCT-116 cells.

`O=C(/C=C/c1cccc(Cl)c1)Nc1cn(Cc2cccc(Cl)c2)cn1` [Example 58]: the pIC50 with FaDu cells was 5.19; in the experiment with HT-29 cells, 5.31; in the experiment on HCT-116 cells, 5.16.

Turning to `O=C(/C=C/c1ccc(Cl)c(Cl)c1)Nc1cn(Cc2cccc(Cl)c2)cn1` [Example 59], the pIC50 with FaDu cells was 6.07; with HT-29 cells, 6.10; in the experiment with HCT-116 cells, 5.11.

As for `O=C(/C=C/c1cccc(C(F)(F)F)c1)Nc1cn(Cc2cccc(Cl)c2)cn1` [Example 60], the pIC50 with FaDu cells was 5.09; in the experiment with HT-29 cells it was 5.01; in the experiment with HCT-116 cells it was less than 5.00.

`O=C(/C=C/c1ccc(Br)cc1)Nc1cn(Cc2cccc(Cl)c2)cn1` [Example 61]: the pIC50 with FaDu cells is 7.15; in the experiment on HT-29 cells, 7.70; in the experiment with HCT-116 cells, 7.05. For the same molecule, the “inhibitory effect” value in the experiment with HCT-116 cells is listed as “particularly potent inhibitory effect”.

With `O=C(/C=C/c1ccc(F)cc1)Nc1cn(Cc2cccc(Cl)c2)cn1` [Example 62], the pIC50 is 6.25 in the experiment with FaDu cells, 7.05 with HT-29 cells and 6.13 with HCT-116 cells.

With `CN(C)c1ccc(/C=C/C(=O)Nc2cn(Cc3cccc(Cl)c3)cn2)cc1` [Example 63], the pIC50 is 7.10 in the experiment on FaDu cells, 7.15 in the experiment with HT-29 cells and 6.28 with HCT-116 cells.

Consider `CCOc1cccc(/C=C/C(=O)Nc2cn(Cc3cccc(Cl)c3)cn2)c1` [Example 64], for which the values for the pIC50 in the experiment with FaDu cells, in the experiment on HT-29 cells and with HCT-116 cells were 6.23, 6.16 and 5.01, respectively.

Consider `O=C(/C=C/c1cccc(O)c1)Nc1cn(Cc2cccc(Cl)c2)cn1` [Example 65], for which the pIC50 was 7.22 with FaDu cells, 5.58 with HT-29 cells and 6.02 with HCT-116 cells. Further, the “inhibitory effect” value with HCT-116 cells is on record as “particularly potent inhibitory effect”.

Turning to `COc1ccc(/C=C/C(=O)Nc2cn(Cc3cccc(Cl)c3)cn2)cc1OC` [Example 66], the pIC50 with FaDu cells is 7.22; in the experiment on HT-29 cells it was 7.15; in the experiment on HCT-116 cells, 7.05. Moreover, the “inhibitory effect” value with HCT-116 cells is “particularly potent inhibitory effect”.

As to `COc1cc(/C=C/C(=O)Nc2cn(Cc3cccc(Cl)c3)cn2)cc(OC)c1O` [Example 67], the pIC50 in the experiment with FaDu cells was 6.10; with HT-29 cells, 5.08; with HCT-116 cells, 5.13.

Regarding `O=C(/C=C/c1ccc([N+](=O)[O-])cc1)Nc1cn(Cc2cccc(Cl)c2)cn1` [Example 68], the pIC50 was 8.00 in the experiment with FaDu cells, more than 8.00 in the experiment with HT-29 cells and 7.15 in the experiment with HCT-116 cells. The “inhibitory effect” value in the experiment with HCT-116 cells was “particularly potent inhibitory effect”.

As to `O=C(/C=C/c1ccc(F)cc1F)Nc1cn(Cc2cccc(Cl)c2)cn1` [Example 69], the values for the pIC50 with FaDu cells, in the experiment on HT-29 cells and in the experiment with HCT-116 cells were 6.27, 6.42 and 6.09, respectively.

Regarding `O=C(/C=C/c1ccc(-c2ccccc2)cc1)Nc1cn(Cc2cccc(Cl)c2)cn1` [Example 70], the figures for the pIC50 in the experiment with FaDu cells, in the experiment on HT-29 cells and in the experiment with HCT-116 cells were 7.05, 7.10 and 5.05, respectively.

As to `COc1ccc(/C=C/C(=O)Nc2cn(Cc3cccc(Cl)c3)cn2)c(OC)c1` [Example 71], the pIC50 was 7.22 in the experiment with FaDu cells, 7.52 with HT-29 cells and 6.64 in the experiment with HCT-116 cells. Also, the “inhibitory effect” value with HCT-116 cells is reported as “particularly potent inhibitory effect”.

For `Cc1ccccc1/C=C/C(=O)Nc1cn(Cc2cccc(Cl)c2)cn1` [Example 72], the pIC50 was 6.54 in the experiment with FaDu cells, 7.05 in the experiment on HT-29 cells and 5.35 in the experiment with HCT-116 cells.

Consider `Cc1cccc(/C=C/C(=O)Nc2cn(Cc3cccc(Cl)c3)cn2)c1` [Example 73], for which the figures for the pIC50 in the experiment with FaDu cells, in the experiment on HT-29 cells and with HCT-116 cells were 6.07, 5.83 and 5.34, respectively.

For `CCOc1ccc(/C=C/C(=O)Nc2cn(Cc3cccc(Cl)c3)cn2)cc1` [Example 74], the pIC50 with FaDu cells was more than 8.00; in the experiment on HT-29 cells, more than 8.00; with HCT-116 cells, 7.30. The “inhibitory effect” value in the experiment with HCT-116 cells is recorded as “particularly potent inhibitory effect”.

As to `COc1cc(/C=C/C(=O)Nc2cn(Cc3cccc(Cl)c3)cn2)c([N+](=O)[O-])cc1OC` [Example 75], the pIC50 is 5.14 with FaDu cells, 5.19 with HT-29 cells and 5.12 in the experiment with HCT-116 cells.

As to `COc1cccc(OC)c1/C=C/C(=O)Nc1cn(Cc2cccc(Cl)c2)cn1` [Example 76], the pIC50 with FaDu cells is 5.39; in the experiment on HT-29 cells, 5.57; in the experiment with HCT-116 cells, 5.21.

As for `COc1ccccc1/C=C/C(=O)Nc1cn(Cc2cccc(Cl)c2)cn1` [Example 77], the pIC50 in the experiment with FaDu cells is more than 8.00; in the experiment with HT-29 cells it was 6.42; in the experiment with HCT-116 cells it was 6.08. For the same molecule, the “inhibitory effect” value in the experiment on HCT-116 cells is “particularly potent inhibitory effect”.

`O=C(/C=C/c1ccc(F)cc1Br)Nc1cn(Cc2cccc(Cl)c2)cn1` [Example 78]: the pIC50 in the experiment on FaDu cells is 5.05; in the experiment on HT-29 cells it was 5.20; in the experiment with HCT-116 cells, 5.14.

`O=C(/C=C/c1cccc(Oc2ccccc2)c1)Nc1cn(Cc2cccc(Cl)c2)cn1` [Example 79]: the values for the pIC50 with FaDu cells, with HT-29 cells and in the experiment with HCT-116 cells were 6.07, 6.15 and 6.10, respectively.

Consider `COc1ccc(/C=C/C(=O)Nc2cn(Cc3cccc(Cl)c3)cn2)cc1Cl` [Example 80], for which the pIC50 in the experiment on FaDu cells is 6.06; in the experiment on HT-29 cells, 5.15; in the experiment with HCT-116 cells, less than 5.00.

For `O=C(/C=C/c1ccc(O)c(F)c1)Nc1cn(Cc2cccc(Cl)c2)cn1` [Example 81], the pIC50 in the experiment with FaDu cells is 6.12; in the experiment with HT-29 cells, 5.21; in the experiment on HCT-116 cells it was 5.42.
